Data reported in patent publication US20070218147A1, “Peroxisome Proliferator-Activated Receptor (Ppar) Activator, and Drugs, Supplements, Functional Foods and Food Additives Using the Same” (ARKRAY, INC., priority 2004, published 2007).

Biological target: T1, human PPARγ ligand-binding domain (Homo sapiens, UniProt P37231)
T1 construct: expressed in transfected cells; host or cells: CV-1 cells (African green monkey kidney)
T1 sequence (P37231 204-505): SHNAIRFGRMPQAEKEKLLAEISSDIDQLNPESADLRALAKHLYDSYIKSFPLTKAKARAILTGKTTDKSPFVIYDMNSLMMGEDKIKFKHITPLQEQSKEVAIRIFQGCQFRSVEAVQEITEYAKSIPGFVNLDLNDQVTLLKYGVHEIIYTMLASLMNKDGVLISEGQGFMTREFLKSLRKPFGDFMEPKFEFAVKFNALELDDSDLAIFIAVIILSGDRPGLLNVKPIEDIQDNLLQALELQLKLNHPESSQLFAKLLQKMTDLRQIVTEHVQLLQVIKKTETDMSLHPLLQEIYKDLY
Experiment: GAL4-hPPARγ luciferase reporter assay (PPARγ ligand activity) in transfected CV-1 cells
Type: cell-based
Settings: for PPARγ ligand activity: 24 hour incubation, CV-1 cells, luciferase activity relative to non-treatment control (DMSO) = 100, average ± standard error, n=4
Protocol: First, CV-1 cells (cultured cells derived from kidneys of male African green monkeys) were implanted on 24-well culture plates so as to be […] and cultured at 37° C. in 5% CO2 for 24 hours. As a medium, DMEM (Dulbecco's Modified Eagle Medium; manufactured by GIBCO) containing 10% FBS (fetal bovine serum) and a 10 mg/mL penicillin streptomycin solution was used. Next, using Lipofectamine system (manufactured by Invitrogen Corporation), pM-hPPARγ and p4×UASg-tk-luc were transfected into the cultured CV-1 cells. The above-noted pM-hPPARγ was a vector for expressing fused protein containing residues 1 - 147 of GAL4 binding domain and residues 204 - 505 of human PPARγ ligand-binding domain, whereas the above-noted p4×UASg-tk-luc was a reporter plasmid containing four copies of an upstream activating sequence (UAS) for GAL4 binding domain and a thymidine kinase gene promoter in front of a luciferase gene. After the transfection, the cells were cultured for about 24 hours, and then, the media for the cells were changed to media containing β-cryptoxantine at respective concentrations (0.1, 1.0, 10 and 70 μM) or media for non-treatment control, followed by an additional 24 hour incubation. The above-noted media containing β-cryptoxantine were prepared by adding β-cryptoxantine dissolved in dimethyl sulfoxide (DMSO) to the media, whereas the media for non-treatment control were prepared by adding only DMSO to the media. After the incubation, the cells were lysed for luciferase activation assay using a Dual-Luciferase Reporter Gene Assay system (manufactured by Promega Corporation) (measurement group).
Similarly to the measurement group, as a control group, the luciferase activation assay was performed using pM (a vector containing residues 1 - 147 of GAL4 binding domain and not containing residues 204-505 of PPARγ ligand-binding domain in pM-hPPARγ) instead of pM-hPPARγ. For each sample, the ratio between average light-emission intensities of the measurement group and the control group (n=4) (measurement group/control group) was calculated, and a luciferase activity relative to the non-treatment control was determined as the PPARγ ligand-binding activity of the sample.

CC1=C(/C=C/C(C)=C/C=C/C(C)=C/C=C/C=C(C)/C=C/C=C(C)/C=C/C2=C(C)C[C@@H](O)CC2(C)C)C(C)(C)CCC1 [β-cryptoxantine]
activity of PPARγ (result in words) (0.1 to 70 μM, activity increased in keeping with the concentration): improved the activity of PPARγ
PPARγ ligand activity (addition concentration 0.1 μM): 119 ± 18.4
PPARγ ligand activity (addition concentration 1.0 μM): 159 ± 25.0
PPARγ ligand activity (addition concentration 10 μM): 166 ± 21.7
PPARγ ligand activity (addition concentration 70 μM): 246 ± 22.5
